The term IC50 denotes the concentration that inhibits the measured activity by half.

CYP46A1, sequence (Q9Y6A2 whole entry, species assumed): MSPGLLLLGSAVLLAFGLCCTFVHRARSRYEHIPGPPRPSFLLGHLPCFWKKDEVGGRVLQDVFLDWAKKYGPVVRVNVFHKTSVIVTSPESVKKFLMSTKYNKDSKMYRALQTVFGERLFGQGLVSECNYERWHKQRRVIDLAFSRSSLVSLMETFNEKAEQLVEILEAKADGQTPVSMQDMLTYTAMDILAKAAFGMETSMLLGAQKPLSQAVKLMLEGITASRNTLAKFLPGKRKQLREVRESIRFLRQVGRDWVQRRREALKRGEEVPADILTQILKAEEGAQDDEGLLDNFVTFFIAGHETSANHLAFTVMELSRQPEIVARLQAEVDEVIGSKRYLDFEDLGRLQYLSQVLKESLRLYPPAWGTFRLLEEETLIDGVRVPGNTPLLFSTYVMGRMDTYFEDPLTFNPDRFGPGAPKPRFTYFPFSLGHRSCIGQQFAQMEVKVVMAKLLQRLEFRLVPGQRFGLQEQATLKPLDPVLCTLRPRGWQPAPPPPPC

This experiment has as its target CYP46A1 (Homo sapiens (Human), UniProt Q9Y6A2). Briefly: CYP46A1 enzyme assay (testosterone substrate, HPLC-MS). The format is biochemical. The note with it: CYP46A1 5 μM, Testosterone 10 mM, NADPH-generating system, 37° C., 15 minutes. The procedure:
Briefly, in a 384-well plate format, 10 μL per well of an enzyme-substrate mixture of CYP46A1 (5 μM final concentration) and Testosterone ([…] final concentration) were dispensed to wells containing test compound. For CYP46A1 titration, 5 μL per well of serially diluted CYP46A1 (concentrations including 10 μM, 5 μM, and 2.5 μM) and Testosterone (concentration of […]) were dispensed. For Testosterone titration, 5 μL per well of serially diluted Testosterone (concentrations including 10 μM, 5 μM, and 2.5 μM) and CYP46A1 (concentration of 5 μM) were dispensed. The plates were centrifuged at 1000 rpm for 30 seconds, and then sealed and incubated at 37° C. for 30 minutes. The plate was removed from the incubator, and then 10 μL per well of NADPH-generating system were dispensed to initiate the reaction. The plates were incubated at 37° C. for 15 minutes, added with 80 μL per well of 100% methanol consisting 1 ng/ml diclofenac as internal standard, and then transferred for HPLC-MS.
In Table 2, A indicates a CYP46A1 IC50<0.1 μM, B indicates a CYP46A1 IC50 (μM) of 0.1 μM to <1.0 μM, and C indicates a CYP46A1 IC50 (μM) of ≥1.0 μM
For `O=C(c1cccnc1-c1ccncn1)N1CCC(F)(Cc2cnc(C(F)(F)F)cn2)CC1` [Compound 40, (4-fluoro-4-((5-(trifluoromethyl)pyrazin-2-yl)methyl)piperidin-1-yl)(2-(pyrimidin-4-yl)pyridin-3-yl)methanone], the half-maximal inhibitory concentration (IC50) lay in the range of 100 to 1000 nM.
For `O=C(c1cccnc1-c1ccncn1)N1CCC(F)(CC2CCOCC2)CC1` [Compound 2, (4-fluoro-4-((tetrahydro-2H-pyran-4-yl)methyl)piperidin-1-yl)(2-(pyrimidin-4-yl)pyridin-3-yl)methanone] the value was not below 1000 nM; for `O=C(c1cccnc1-c1ccncc1)N1CCC(F)(CC2CCOCC2)CC1` [Compound 3], not below 1000 nM.
For `N#Cc1ccc(CC2(F)CCN(C(=O)c3cccnc3-c3ccncn3)CC2)c(F)c1` [Compound 9, 3-fluoro-4-((4-fluoro-1-(2-(pyrimidin-4-yl)nicotinoyl)piperidin-4-yl)methyl)benzonitrile] the value was less than 100 nM; for `O=C(c1cccnc1-c1ccncn1)N1CCC(F)(C(=O)c2ccc(C(F)(F)F)cc2)CC1` [Compound 12, (4-fluoro-1-(2-(pyrimidin-4-yl)nicotinoyl)piperidin-4-yl)(4-(trifluoromethyl)phenyl)methanone], 100 to 1000 nM; for `Cc1ccc(CC2(F)CCN(C(=O)c3cccnc3-c3ccncn3)CC2)nc1` [Compound 42, (4-fluoro-4-((5-methylpyridin-2-yl)methyl)piperidin-1-yl)(2-(pyrimidin-4-yl)pyridin-3-yl)methanone], 100 to 1000 nM.
Consider `O=C(c1cccnc1-c1ccncn1)N1CCC(F)(Cc2ccc(OC(F)(F)F)cn2)CC1` [Compound 27, (4-fluoro-4-((5-(trifluoromethoxy)pyridin-2-yl)methyl)piperidin-1-yl)(2-(pyrimidin-4-yl)pyridin-3-yl)methanone], for which the IC50 fell in the range of 100 to 1000 nM.
`O=C(c1cccnc1-c1ccncn1)N1CCC(F)(Cc2ccc(C3CC3)cn2)CC1` [Compound 7, (4-((5-cyclopropylpyridin-2-yl)methyl)-4-fluoropiperidin-1-yl)(2-(pyrimidin-4-yl)pyridin-3-yl)methanone]: the IC50 was less than 100 nM.
As for `O=C(c1cccnc1-c1ccncn1)N1CCC(F)(Cc2ccc(F)cn2)CC1` [Compound 10, (4-fluoro-4-((5-fluoropyridin-2-yl)methyl)piperidin-1-yl)(2-(pyrimidin-4-yl)pyridin-3-yl)methanone], the figure is 100 to 1000 nM; as for `O=C(c1cccnc1-c1ccncn1)N1CCC(F)(Cc2cnccn2)CC1` [Compound 44, (4-fluoro-4-(pyrazin-2-ylmethyl)piperidin-1-yl)(2-(pyrimidin-4-yl)pyridin-3-yl)methanone], 100 to 1000 nM.
As for `Cc1cnc(CC2(F)CCN(C(=O)c3cccnc3-c3ccncn3)CC2)cn1` [Compound 50, (4-fluoro-4-((5-methylpyrazin-2-yl)methyl)piperidin-1-yl)(2-(pyrimidin-4-yl)pyridin-3-yl)methanone], the figure is 100 to 1000 nM; as for `N#Cc1ccc([C@@H](O)C2(F)CCN(C(=O)c3cccnc3-c3ccncn3)CC2)c(F)c1` [Compound 16], 100 to 1000 nM.
The compound `O=C(c1cccnc1-c1ccncc1)N1CCC(F)(Cc2ccc(C(F)(F)F)nn2)CC1` [Compound 37, [2,4′-bipyridin]-3-yl(4-fluoro-4-((6-(trifluoromethyl)pyridazin-3-yl)methyl)piperidin-1-yl)methanone] came in with a half-inhibitory concentration (IC50) of 100 to 1000 nM.
Regarding `N#Cc1ccc(CC2(F)CCN(C(=O)c3cccnc3-c3ccncn3)CC2)nc1` [Compound 21, 6-((4-fluoro-1-(2-(pyrimidin-4-yl)nicotinoyl)piperidin-4-yl)methyl)nicotinonitrile], the IC50 lay within 100 to 1000 nM.
`O=C(c1cccnc1-c1ccncn1)N1CCC(F)(Cc2ccc(C(F)(F)F)nn2)CC1` [Compound 36, (4-fluoro-4-((6-(trifluoromethyl)pyridazin-3-yl)methyl)piperidin-1-yl)(2-(pyrimidin-4-yl)pyridin-3-yl)methanone] gave an IC50 of 100 to 1000 nM.
For `O=C(c1cccnc1-c1ccncn1)N1CCC(F)(Cc2ccc(C(F)(F)F)cc2)CC1` [Compound 4, (4-fluoro-4-(4-(trifluoromethyl)benzyl)piperidin-1-yl)(2-(pyrimidin-4-yl)pyridin-3-yl)methanone] the value was less than 100 nM; for `O=C(c1cccnc1-c1ccncn1)N1CCC(F)(Cc2cccnn2)CC1` [Compound 48, (4-fluoro-4-(pyridazin-3-ylmethyl)piperidin-1-yl)(2-(pyrimidin-4-yl)pyridin-3-yl)methanone], 100 to 1000 nM.
As for `O=C(c1cccnc1-c1ccncn1)N1CCC(F)(Cc2cc(C(F)(F)F)ccn2)CC1` [Compound 25, (4-fluoro-4-((4-(trifluoromethyl)pyridin-2-yl)methyl)piperidin-1-yl)(2-(pyrimidin-4-yl)pyridin-3-yl)methanone], the figure is 100 to 1000 nM; as for `N#Cc1ccc(CC2(F)CCN(C(=O)c3cccnc3-c3ccncn3)CC2)cc1` [Compound 6, 4-((4-fluoro-1-(2-(pyrimidin-4-yl)nicotinoyl)piperidin-4-yl)methyl)benzonitrile], less than 100 nM.
As for `N#Cc1ccc(C(=O)C2(F)CCN(C(=O)c3cccnc3-c3ccncn3)CC2)c(F)c1` [Compound 17, 3-fluoro-4-(4-fluoro-1-(2-(pyrimidin-4-yl)nicotinoyl)piperidine-4-carbonyl)benzonitrile], the figure is 100 to 1000 nM; as for `O=C(c1cccnc1-c1ccncn1)N1CCC(F)(Cc2ccc(F)cc2)CC1` [Compound 1, (4-fluoro-4-(4-fluorobenzyl)piperidin-1-yl)(2-(pyrimidin-4-yl)pyridin-3-yl)methanone], less than 100 nM.
Take `O=C(c1cccnc1-c1ccncc1)N1CCC(F)(Cc2cccnn2)CC1` [Compound 49, [2,4′-bipyridin]-3-yl(4-fluoro-4-(pyridazin-3-ylmethyl)piperidin-1-yl)methanone]: the IC50 lay within 100 to 1000 nM.
`Cc1ccc(CC2(F)CCN(C(=O)c3cccnc3-c3ccncn3)CC2)cn1` [Compound 53] came in with a concentration for half-maximal inhibition (IC50) of 100 to 1000 nM.
`N#Cc1ccc([C@H](O)C2(F)CCN(C(=O)c3cccnc3-c3ccncn3)CC2)c(F)c1` [Compound 15] came in with a half-maximal inhibitory concentration (IC50) of less than 100 nM.
As for `O=C(c1cccnc1-c1ccncn1)N1CCC(F)(Cc2ncc(Cl)cc2F)CC1` [Compound 30, (4-((5-chloro-3-fluoropyridin-2-yl)methyl)-4-fluoropiperidin-1-yl)(2-(pyrimidin-4-yl)pyridin-3-yl)methanone], the figure is 100 to 1000 nM; as for `N#Cc1cc(F)c(CC2(F)CCN(C(=O)c3cccnc3-c3ccncn3)CC2)c(F)c1` [Compound 11, 3,5-difluoro-4-((4-fluoro-1-(2-(pyrimidin-4-yl)nicotinoyl)piperidin-4-yl)methyl)benzonitrile], less than 100 nM.
Regarding `O=C(c1cccnc1-c1ccncn1)N1CCC(F)(Cc2cnc(C(F)(F)F)nc2)CC1` [Compound 41, (4-fluoro-4-((2-(trifluoromethyl)pyrimidin-5-yl)methyl)piperidin-1-yl)(2-(pyrimidin-4-yl)pyridin-3-yl)methanone], the IC50 was in the range of 100 to 1000 nM.
As for `O=C(c1cccnc1-c1ccncn1)N1CCC(F)(Cc2ccccn2)CC1` [Compound 5, (4-fluoro-4-(pyridin-2-ylmethyl)piperidin-1-yl)(2-(pyrimidin-4-yl)pyridin-3-yl)methanone], the figure is less than 100 nM.

(Values after patent US20230312522A1, “CYP46A1 INHIBITORS AND METHODS OF USE THEREOF” (Sage Therapeutics, Inc., priority 2020, published 2023).)
